One test has as its target hCB1-CHO-K1 membranes (Homo sapiens, UniProt P21554). Put plainly: CB-1 membrane binding assay ([3H] CP 55,940 displacement).
The target in a further test is T1, hCB2-HEK293 membranes (Homo sapiens, UniProt P34972).
T1 construct: expressed in transfected cells; host or cells: HEK293
The experiment in a line: CB-2 membrane binding assay ([3H] CP 55,940 displacement). The conditions noted are these: mean where tested more than once.

Test [1] addresses T2, Human CB2R (Cannabinoid receptor 2) (Homo sapiens, UniProt P34972).
T2 construct: host or cells: HEK-293
The experiment in a line: CB-2 in vitro cAMP (HTRF) functional assay. The conditions noted are these: mean where tested more than once. Type of test: cell-based. The text has this:
(§1) CB1 and CB2 receptors are Gi-coupled GPCR. Activation of CB1 and CB2 receptors results in a decrease in cAMP production. An inverse agonist of the CB1 or CB2 receptor results in the opposite effect, an increase of cAMP production. The principle of this assay is based on HTRF® technology (Homogeneous Time-Resolved Fluorescence). The method is a competitive immunoassay between native cAMP produced by cells and the cAMP labeled with the fluorophore d2. The tracer binding is quantified by a Mab anti-cAMP labeled with Eu3+ TBP-NHS Cryptate (supplied as part of the assay kit). The specific signal (i.e. energy transfer) is inversely proportional to the concentration of cAMP in the standard or sample.
(§2) Human CB1R (Cannabinoid receptor 1) was stably transfected in HEK-293 cells (DiscoveRx, cat: 93-0200C1). Human CB2R (Cannabinoid receptor 2) was stably transfected in HEK-293 cells (DiscoveRx, cat: 93-0201C1). Cell cultures were maintained in media: DMEM (Invitrogen Cat#12430-054) supplemented with 10% HI FBS (Invitrogen Cat#16140-071), 1% L-glutamine (Invitrogen Cat#25030-081), 0.2 mg/ml Hygromycin B (Invitrogen Cat#10687-010), 600 μg/mL G418 (Invitrogen Cat#10131-035), and 1× Penn/Strep (Invitrogen 15140-122). After cell expansion, aliquots were cryo-stored in media containing 5% DMSO (Pierce Cat#20684).
(§3) One day prior to experiments media was warmed to 37° C. and the cryo-stored cells were thawed in a 37° C. water bath. The cells were then added to media (10× volume) and the mixture was centrifuged at 1000 RPM for 5 min. The supernate was removed and the cells were re-suspended in media. A sample of the cell suspension was evaluated on a Cedex XS automated cell counter (Innovatis Systems) to determine viable cells/ml. Additional media was added to the cells to achieve a final cell density of 4E5 cells/mL. The cells were then plated into 384 well PDL white solid bottom plates (Greiner, Cat#781945) at 20 μL per well using a Multidrop (Thermo Scientific). Cells were removed from Row P (location of cAMP standards). Two columns of cells were plated into a clear bottom 384 well PDL coated plate (Greiner, Cat#781944) to view confluence the day of the assay. The cell plates were lidded and stored for 15 minutes in a hood, then transferred to an incubator (37° C., 5% CO2, 95% humidity) overnight.
(§4) DMSO was added to all wells of 384 well V bottom polystyrene plate (Greiner, Cat#781280) except to columns 1 and 13, rows O and P and wells M13-M23 and N13-N23. Test compounds (60 μL, 10 mM) were added to Column 1 and 13 (A1 through N1 and A13 through L13). Test compounds were serially diluted 1/3 by transferring and mixing 20 μl sample with 40 μL DMSO.
(§5) DMSO (40 μL) was added to wells of 384 well V bottom polystyrene plate: O2 through O11, M14 through M23, N14 through N23, and O14 through O23. AM630 (also known as [6-iodo-2-methyl-1-[2-(4-morpholinyl)ethyl]-1H-indol-3-yl](4-methoxyphenyl)-methanone, Cayman Chemical, Cat#10006974) (60 μL, 10 mM) was added to O1; and 1-(2,4-dichlorophenyl)-7-[(4-fluorophenyl)methylene]-4,5,6,7-tetrahydro-N-1-piperidinyl-1H-indazole-3-carboxamide (60 μL, 10 mM) was added to N13. The control was serially diluted 1/3 by transferring and mixing 20 μl sample with 40 μL DMSO. This process resulted 11 doses per control, 10 mM to […].
(§6) Cells plated the day prior to the assay in clear bottom plates were viewed on an inverse microscope to ensure confluency in the range of 60-75%. […]

Test [2] has as its target T3, Human CB1R (Cannabinoid receptor 1) (Homo sapiens, UniProt P21554).
T3 construct: host or cells: HEK-293
Put plainly: CB-1 in vitro cAMP (HTRF) functional assay. Type of test: cell-based. The conditions noted are these: mean where tested more than once.
From the text: as §1, §2, §3, §4, §5, §6
Background: Time-resolved FRET reads energy transfer from a long-lived donor to a nearby acceptor.

The structures appear in SMILES notation. A value given as a limit tells only on which side of the number the result lay.

T2 sequence (P34972 whole entry): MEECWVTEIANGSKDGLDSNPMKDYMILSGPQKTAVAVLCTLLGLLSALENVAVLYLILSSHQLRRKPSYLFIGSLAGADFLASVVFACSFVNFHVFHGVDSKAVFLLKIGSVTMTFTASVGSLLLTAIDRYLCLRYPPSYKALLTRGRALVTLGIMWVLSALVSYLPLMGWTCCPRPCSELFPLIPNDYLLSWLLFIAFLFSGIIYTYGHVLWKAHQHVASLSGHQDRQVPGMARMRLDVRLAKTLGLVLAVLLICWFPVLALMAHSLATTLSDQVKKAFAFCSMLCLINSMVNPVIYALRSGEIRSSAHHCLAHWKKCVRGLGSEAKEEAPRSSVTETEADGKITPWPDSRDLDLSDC
T3 sequence (P21554 whole entry): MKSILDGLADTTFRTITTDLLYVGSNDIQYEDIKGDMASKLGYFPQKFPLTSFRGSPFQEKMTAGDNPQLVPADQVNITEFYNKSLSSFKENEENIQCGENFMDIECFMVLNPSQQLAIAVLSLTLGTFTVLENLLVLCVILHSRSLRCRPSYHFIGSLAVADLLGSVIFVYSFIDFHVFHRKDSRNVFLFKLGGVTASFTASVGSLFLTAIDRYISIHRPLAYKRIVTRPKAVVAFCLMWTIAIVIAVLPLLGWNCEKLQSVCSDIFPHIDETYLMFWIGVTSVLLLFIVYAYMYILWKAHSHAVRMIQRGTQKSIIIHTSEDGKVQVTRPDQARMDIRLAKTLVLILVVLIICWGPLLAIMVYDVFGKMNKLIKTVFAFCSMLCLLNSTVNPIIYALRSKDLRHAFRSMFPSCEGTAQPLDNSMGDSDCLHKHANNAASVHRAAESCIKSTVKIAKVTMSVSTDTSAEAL
Sequence of hCB1-CHO-K1 membranes (P21554 whole entry): as above
T1 sequence (P34972 whole entry): as the sequence (P34972 whole entry) above
Experimental for hCB1-CHO-K1 membranes: Into Greiner V bottom polypropylene plates, hCB1-CHO-K1 membranes (2 μg/well final concentration) in assay buffer (50 mM Tris-HCl pH 7.4, 5 mM MgCl2 and 0.5 mg/ml (0.05%) Ultra fatty acid free BSA) were dispensed. Membranes were purchased from Perkin Elmer. Test compounds were then added to each well and then [^3H] CP 55, 940 (0.4 nM final well concentration) in assay buffer (50 mM Tris-HCl pH 7.4, 5 mM MgCl2 and 0.5 mg/ml (0.05%) Ultra fatty acid free BSA) was added. Samples were mixed and incubated for 90 min at 30° C. in the Greiner V Bottom Polypropylene plate. After incubation, assay reagents were transferred to a blocked 384 well polypropylene filter plates. The binding reaction was stopped by filtration and washed seven times with ice cold rinse buffer. Filter plates were then dried overnight at room temperature. The next day, plate bottoms were sealed with plate tape and 15 μl MicroScint 20 was added to each well. Plates were incubated for 2 h and radioactivity was measured by Topcount.
Total Binding levels were achieved by combining membrane, DMSO, and [^3H]
Non-Specific Binding (NSB) levels were achieved by combining membrane, 10 μM final concentration WIN-55,212 (also known as (R)-(+)-[2,3-Dihydro-5-methyl-3[(4-morpholinyl)methyl]pyrrolo[1,2,3-de]-1,4-benzoxazinyl]-(1-naphthalenyl)methanone mesylate, Tocris Biosciences Cat#1038), and [^3H]
Non-specific binding (NSB=10 μM WIN-55,212+Membrane+[^3H] CP-55,940) was used as the negative control, while the Total Binding (TB=DMSO+Membrane+[^3H] CP-55,940) was used as the positive control.
IC50 data was calculated using raw CPM values. Curves were fitted individually from singlet 11 point dosing curves+1% DMSO Control. IC50 values were fit appropriately and calculated using the following equation:
Vmin, CPM at maximum inhibition; Vo, CPM at zero inhibition; IC50, inhibitor concentration at 50% inhibition; h, Hill coefficient.

In the case of `O=c1cc(CCc2cccc(Cl)c2)c2cc(C(O)(c3ccc(Cl)cc3)c3nccs3)ccc2[nH]1` (centres unmarked) [Compound 8, 4-(3-chlorophenethyl)-6-((4-chlorophenyl)(hydroxy)(thiazol-2-yl)methyl)quinolin-2(1H)-one], the half-maximal inhibitory concentration (IC50) (commonly the concentration at which inhibition is half-maximal) at hCB1-CHO-K1 membranes was over 2500 nM.

On to `Cn1c(=O)cc(CCc2cccc(Cl)c2)c2cc(C(c3ccc(Cl)cc3)c3nccs3)ccc21` (centres unmarked) [Compound 9, 4-(3-chlorophenethyl)-6-((4-chlorophenyl)(thiazol-2-yl)methyl)-1-methylquinolin-2(1H)-one], for which the IC50 at hCB1-CHO-K1 membranes was over 2500 nM.

On to `O=c1cc(CCc2cccc(Cl)c2)c2cc(C(c3ccc(Cl)cc3)c3nccs3)ccc2[nH]1` (centres unmarked) [Compound 11, 4-(3-chlorophenethyl)-6-((4-chlorophenyl)(thiazol-2-yl)methyl)quinolin-2(1H)-one], for which, on hCB1-CHO-K1 membranes, the IC50 was 332 nM.

Take `O=c1cc(/C=C/c2cccc(F)c2)c2cc(C(c3ccc(Cl)cc3)c3ccsc3)ccc2[nH]1` (centres unmarked) [Compound 16, 6-[(4-Chlorophenyl)(thiophen-3-yl)methyl]-4-[(E)-2-(3-fluorophenyl)ethenyl]quinolin-2(1H)-one]: the figures for the 50% inhibitory concentration (IC50) on hCB2-HEK293 membranes and at hCB1-CHO-K1 membranes were over 5000 nM and 22 nM, respectively.

For `O=c1cc(/C=C/c2ccc(C(F)(F)F)cc2)c2cc(C(c3ccc(Cl)cc3)c3cccs3)ccc2[nH]1` (centres unmarked) [Compound 19, 6-[(4-Chlorophenyl)(thiophen-2-yl)methyl]-4-{(E)-2-[4-(trifluoromethyl)phenyl]ethenyl} quinolin-2(1H)-one], the concentration for half-maximal inhibition (IC50) is over 5000 nM at hCB2-HEK293 membranes and 15.1 nM at hCB1-CHO-K1 membranes.

As for `O=C(O)c1ccc(Nc2cc(=O)[nH]c3ccc(C(c4ccc(Cl)cc4)c4ccc(Cl)cc4)cc23)cc1` [Compound 86, 4-({6-[Bis(4-chlorophenyl)methyl]-2-oxo-1,2-dihydroquinolin-4-yl}amino)benzoic acid], the EC50 in test [1] and in test [2] was over 10000 nM throughout.

For `O=c1cc(Nc2ccc(C(F)(F)F)cc2)c2cc(C(c3ccc(Cl)cc3)c3ccc(Cl)cc3)cc(Br)c2[nH]1` [Compound 93], the values for the 50% effective concentration (EC50) in test [1] and in test [2] were over 10000 nM and 15 nM, respectively.

Turning to `O=C(O)CCN1CCC(Nc2cc(=O)[nH]c3ccc(C(c4ccc(Cl)cc4)c4ccc(Cl)cc4)cc23)CC1` [Compound 115, 3-[4-({6-[Bis(4-chlorophenyl)methyl]-2-oxo-1,2-dihydroquinolin-4-yl}amino)piperidin-1-yl]propanoic acid], the EC50 in test [1] and in test [2] was over 10000 nM in each case.

For `O=C(c1ccc(Nc2cc(=O)[nH]c3ccc(C(c4ccc(Cl)cc4)c4ccc(Cl)cc4)cc23)cc1F)N1CCCC1` [Compound 138], the EC50 – broadly, the concentration that produces a half-maximal response – in test [1] was determined as 750 nM; in test [2], 227 nM.

`NCCCCNc1cc(C(c2ccc(Cl)cc2)c2ccc(Cl)cc2)cc2c(NC3CCN(S(=O)(=O)C(F)(F)F)CC3)cc(=O)[nH]c12` [Compound 141, 8-((4-aminobutyl)amino)-6-(bis(4-chlorophenyl)methyl)-4-((1-((trifluoromethyl)sulfonyl)piperidin-4-yl)amino)quinolin-2(1H)-one] had an EC50 in test [1] of over 10000 nM.

At hCB1-CHO-K1 membranes, `OC(c1ccc(Cl)cc1)(c1ccc(Cl)cc1)c1ccc2nccc(/C=C/c3ccccc3)c2c1` [Compound 501, (E)-bis(4-chlorophenyl)(4-styrylquinolin-6-yl)methanol] gave an IC50 of 52.1 nM.

Turning to `Clc1ccc(C(c2ccc(Cl)cc2)c2ccc3nccc(/C=C/c4ccccc4)c3c2)cc1` [Compound 503, (E)-6-(bis(4-chlorophenyl)methyl)-4-styrylquinoline], the IC50 on hCB1-CHO-K1 membranes amounted to 4.1 nM.

On to `COc1ccc(C(O)(c2ccc3nccc(/C=C/c4ccccc4)c3c2)c2nccs2)cc1` (centres unmarked) [Compound 504, (E)-(4-methoxyphenyl)(4-styrylquinolin-6-yl)(thiazol-2-yl)methanol], for which the IC50 on hCB1-CHO-K1 membranes stood at 1870 nM.

Compound `OC(c1ccc(Cl)cc1)(c1ccc2nccc(/C=C/c3ccccc3)c2c1)c1cccs1` (centres unmarked) [Compound 506, (4-Chlorophenyl){4-[(E)-2-phenylethenyl]quinolin-6-yl}thiophen-2-ylmethanol] yielded an IC50 on hCB1-CHO-K1 membranes of 101 nM.

The compound `OC(c1ccc(Cl)cc1)(c1ccsc1)c1ccc2nccc(/C=C/c3ccccc3)c2c1` (centres unmarked) [Compound 507, (4-Chlorophenyl){4-[(E)-2-phenylethenyl]quinolin-6-yl}thiophen-3-ylmethanol] came in with an IC50 at hCB1-CHO-K1 membranes of 223 nM.

Regarding `Clc1ccc(C(c2ccc3nccc(/C=C/c4ccccc4)c3c2)c2cccs2)cc1` (centres unmarked) [Compound 508, 6-[(4-Chlorophenyl)(thiophen-2-yl)methyl]-4-[(E)-2-phenylethenyl]quinoline], the half-maximal inhibitory concentration (IC50) on hCB1-CHO-K1 membranes is 97.3 nM.

On to `CCOC(=O)COc1cc(C(c2ccc(Cl)cc2)c2ccc(Cl)cc2)cc2c(NC3CCN(S(=O)(=O)C(F)(F)F)CC3)ccnc12` [Compound 544], for which the EC50 turned out to be 3400 nM in test [1] and 126 nM in test [2].

`O=C(O)COc1cc(C(c2ccc(Cl)cc2)c2ccc(Cl)cc2)cc2c(NC3CCN(S(=O)(=O)C(F)(F)F)CC3)ccnc12` [Compound 545] registered an EC50 in test [2] of 4900 nM.

Turning to `CCS(=O)(=O)N1CCC(Nc2cc(=O)[nH]c3ccc(C(c4ccc(Cl)cc4)c4ccc(Cl)cc4)cc23)CC1` [Compound #56, 6-(bis(4-chlorophenyl)methyl)-4-((1-(ethylsulfonyl)piperidin-4-yl)amino)quinolin-2(1H)-one], the EC50 in test [1] is over 10000 nM.

`O=c1cc(NC2CCN(c3ccccc3)CC2)c2cc(C(c3ccc(Cl)cc3)c3ccc(Cl)cc3)ccc2[nH]1` [Compound #60, 6-[bis(4-chlorophenyl)methyl]-4-[(1-phenylpiperidin-4-yl)amino]quinolin-2-ol]: in test [1], the 50% effective concentration (EC50) is over 10000 nM.

`O=c1cc(NCc2ccc(C(F)(F)F)nc2)c2cc(C(c3ccc(Cl)cc3)c3ccc(Cl)cc3)ccc2[nH]1` [Compound #70, 6-(bis(4-chlorophenyl)methyl)-4-(((6-(trifluoromethyl)pyridin-3-yl)methyl)amino)quinolin-2(1H)-one]: in test [1], the EC50 is over 10000 nM.

Compound `O=c1cc(NC2CCCCC2)c2cc(C(c3ccc(Cl)cc3)c3ccc(Cl)cc3)ccc2[nH]1` [Compound #71, 6-(bis(4-chlorophenyl)methyl)-4-(cyclohexylamino)quinolin-2(1H)-one] came in with an EC50 in test [1] of over 10000 nM.

`O=c1cc(NC2CCN(CC(F)(F)F)CC2)c2cc(C(c3ccc(Cl)cc3)c3ccc(Cl)cc3)ccc2[nH]1` [Compound #77, 6-(bis(4-chlorophenyl)methyl)-4-((1-(2,2,2-trifluoroethyl)piperidin-4-yl)amino)quinolin-2(1H)-one]: in test [1], the EC50 is over 10000 nM.

The compound `O=c1cc(NC2CCN(S(=O)(=O)N3CCCC3)CC2)c2cc(C(c3ccc(Cl)cc3)c3ccc(Cl)cc3)ccc2[nH]1` [Compound #81, 6-(bis(4-chlorophenyl)methyl)-4-((1-(pyrrolidin-1-ylsulfonyl)piperidin-4-yl)amino)quinolin-2(1H)-one] had an EC50 in test [1] of over 10000 nM.

`NC(=O)Cn1c(=O)cc(NC2CCN(S(=O)(=O)C(F)(F)F)CC2)c2cc(C(c3ccc(Cl)cc3)c3ccc(Cl)cc3)ccc21` [Compound #90, 2-(6-(bis(4-chlorophenyl)methyl)-2-oxo-4-((1-((trifluoromethyl)sulfonyl)piperidin-4-yl)amino)quinolin-1 (2H)-yl)acetamide] showed an EC50 in test [1] of over 10000 nM.

Values taken from patent US9464055B2, “Quinoline derivatives useful as CB-1 inverse agonists” (JANSSEN PHARMACEUTICA NV, priority 2014, dated 2016).
